Laboratory results taken from US20260070887A1 (Shenzhen Zhongge Biological Technology Co., Ltd., priority 2022, published 2026).
Read-outs that look alike come from different tables or passages of the source.

Experiments:
[1] = tested on: HCC1395 cells; experiment: HCC1395 cell proliferation (Cell Titer-Glo, 6 days); type: cell-based; conditions: KIF18A-insensitive tumor cells
Experimental: (§1) The inhibitory effect on the KIF18A target by the compounds of the present disclosure was evaluated by testing the inhibitory effect on proliferation of HCC1954 and HCC1395 cells by the compounds of the present disclosure.
(§2) HCC1954 (ATCC, CRL-2388) and HCC1395 (ATCC, CRL-2324) cells were cultured separately in RPMI-1640 complete medium (Gibco, A1049101) containing 20% fetal bovine serum (Gibco, 10099141C), 100 U penicillin, and 100 μg/mL streptomycin (Gibco, 15140-122). The Promega kit Cell Titer-Glo (Promega: G7572) was used in this method for test. • 1. HCC1954 (KIF18A-sensitive tumor cells) and HCC1395 (KIF18A-insensitive tumor cells) were cultured separately in T75 cell culture flasks (Corning, 430641), and the medium was placed in a 37° C., 5% CO2 incubator. • 2. When the cell density reached 70% to 80% (about 2 to 3 times per week), cells are passaged with trypsin (0.25% EDTA). • 3. The cell culture flask was taken out and the cells were separated by adding 2 mL of trypsin (0.25% EDTA source) for 5 minutes. • 4. Digestion was stopped by adding 8 mL of RPM1-1640 medium and the cell suspension was transferred to a centrifuge tube and centrifuged at 1000 rpm for 5 minutes. • 5. The cells were resuspended with 5 mL of RPMI-1640 medium. Cell density was adjusted to 5×10^3/mL (HCC1954), and 2.5×10^4/mL (HCC1395), respectively. • 6. 40 μL of cell solution was added to the 384-well plate (Corning, 3765). • 7. The 384-well plate was centrifuged at 1000 rpm for 1 minute. • 8. The cells were cultured overnight in a 37° C., 5% CO2 incubator. • 9. The next day, 40 nL of compound solution was added to the 384-well plate using Echo650. The plate was then placed in a 37° C., 5% CO2 incubator for 6 days. • 10. After 6 days, 20 μL of Cell-Titer-Glo (Promega, G7572) reagent was added per well. • 11. Luminescence values were measured using the EnVision Xcite Multilabel Reader (PerkinElmer, 2105-0020).
(§3) The percentage of inhibition of cell proliferation by the test compound at each concentration was calculated by comparing with the values of the control group (0.1% DMSO). The IC50 values of the compounds were obtained by concentration-inhibition rate nonlinear regression analysis of the test compounds using GraphPad Prism 9.

[2] = tested on: OVCAR-3 cells; experiment: OVCAR-3 cell proliferation (Cell Titer-Glo, 10 days); type: cell-based, human
Method in brief: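 IC50 was fitted by nonlinear regression of percent inhibition versus the 0.1% DMSO control. Luminescence was read with Cell Titer-Glo after 10 days of co-culture of logarithmic-phase cells (400/well) with compound at 0.12 nM–10 μM final, in medium with 20% fetal bovine serum and 0.01 mg/mL insulin.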

[3] = tested on: HCC1954 cells; experiment: HCC1954 cell proliferation (Cell Titer-Glo, 6 days); type: cell-based; conditions: KIF18A-sensitive tumor cells
Experimental: as §1, §2, §3

[4] = target: KIF18A (Homo sapiens (Human), UniProt Q8NI77); experiment: KIF18A ATPase activity under tubulin stimulation (ADP-Glo assay); type: biochemical; conditions: KIF18A 30 nM, ATP 150 μM, pig microtubules
Sequence of KIF18A (Q8NI77 whole entry): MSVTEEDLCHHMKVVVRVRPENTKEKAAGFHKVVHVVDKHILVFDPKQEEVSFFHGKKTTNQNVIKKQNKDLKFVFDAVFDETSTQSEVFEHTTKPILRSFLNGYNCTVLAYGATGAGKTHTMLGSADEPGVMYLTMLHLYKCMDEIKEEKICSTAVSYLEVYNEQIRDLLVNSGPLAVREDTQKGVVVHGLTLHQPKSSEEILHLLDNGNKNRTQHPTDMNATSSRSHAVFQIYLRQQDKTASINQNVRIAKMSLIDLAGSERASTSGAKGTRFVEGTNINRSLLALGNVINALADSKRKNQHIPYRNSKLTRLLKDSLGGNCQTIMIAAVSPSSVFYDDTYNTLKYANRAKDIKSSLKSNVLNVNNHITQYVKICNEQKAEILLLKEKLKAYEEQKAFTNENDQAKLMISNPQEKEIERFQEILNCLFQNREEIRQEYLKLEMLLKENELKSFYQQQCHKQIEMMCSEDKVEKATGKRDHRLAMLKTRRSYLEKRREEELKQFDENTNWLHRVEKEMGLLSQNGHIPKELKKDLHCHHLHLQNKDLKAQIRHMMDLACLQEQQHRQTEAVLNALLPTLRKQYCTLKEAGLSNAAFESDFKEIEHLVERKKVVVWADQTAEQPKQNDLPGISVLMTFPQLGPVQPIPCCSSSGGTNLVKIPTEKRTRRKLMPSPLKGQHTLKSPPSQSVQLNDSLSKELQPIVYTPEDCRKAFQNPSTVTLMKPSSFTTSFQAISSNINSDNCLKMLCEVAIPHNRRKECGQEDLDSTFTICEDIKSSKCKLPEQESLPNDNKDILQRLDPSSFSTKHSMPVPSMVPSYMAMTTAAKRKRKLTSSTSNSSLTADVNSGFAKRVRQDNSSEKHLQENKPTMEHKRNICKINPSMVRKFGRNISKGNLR
Sequence of KIF18A (P02550 whole entry partner): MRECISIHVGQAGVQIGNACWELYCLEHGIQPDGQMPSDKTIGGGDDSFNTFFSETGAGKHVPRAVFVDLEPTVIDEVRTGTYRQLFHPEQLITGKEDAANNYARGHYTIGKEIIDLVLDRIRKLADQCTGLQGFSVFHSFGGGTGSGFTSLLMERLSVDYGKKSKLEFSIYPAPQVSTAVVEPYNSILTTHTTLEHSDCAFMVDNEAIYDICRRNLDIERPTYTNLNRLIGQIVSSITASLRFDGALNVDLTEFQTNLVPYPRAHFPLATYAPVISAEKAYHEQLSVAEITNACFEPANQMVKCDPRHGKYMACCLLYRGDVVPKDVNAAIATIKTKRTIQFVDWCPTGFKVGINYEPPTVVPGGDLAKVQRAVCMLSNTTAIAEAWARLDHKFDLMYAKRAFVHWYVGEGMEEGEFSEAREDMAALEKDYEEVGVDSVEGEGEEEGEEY
Sequence of KIF18A (P02554 whole entry partner): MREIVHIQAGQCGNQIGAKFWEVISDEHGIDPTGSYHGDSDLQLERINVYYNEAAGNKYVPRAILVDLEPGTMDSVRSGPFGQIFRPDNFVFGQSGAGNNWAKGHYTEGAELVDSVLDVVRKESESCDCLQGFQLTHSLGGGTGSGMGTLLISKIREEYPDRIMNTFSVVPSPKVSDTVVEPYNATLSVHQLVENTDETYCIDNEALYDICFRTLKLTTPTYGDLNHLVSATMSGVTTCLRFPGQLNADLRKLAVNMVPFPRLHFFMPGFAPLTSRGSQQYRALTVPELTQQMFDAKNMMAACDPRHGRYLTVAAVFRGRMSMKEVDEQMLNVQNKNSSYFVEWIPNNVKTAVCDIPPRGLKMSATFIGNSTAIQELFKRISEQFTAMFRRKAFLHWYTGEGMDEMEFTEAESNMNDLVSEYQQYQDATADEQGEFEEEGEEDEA

[5] = PK study in ICR mice; type: in vivo, mouse; conditions: both sexes, mouse, plasma, route and dose not given
Experimental: 6 ICR mice (male/female) were divided into two groups, administered orally and intravenously, respectively, with 3 mice/group. The mice were fasted for 10-14 hours prior to dosing with free access to water.
The test compound was weighed according to the administration dose, and prepared into a dose formulation at appropriate concentrations (for rats and mice, intravenous and oral administration at a volume of 5 mL/kg and 10 mL/kg, respectively), wherein the intravenous injection was a clear solution, and the oral preparation was a clear solution or a homogeneous suspension.
Animals were dosed by intravenous injection and oral gavage, and blood samples were collected at 0.033, 0.083, 0.25, 0.5, 1, 2, 4, 8, and 24 h after intravenous administration and 0.083, 0.25, 0.5, 1, 2, 4, 6, 8, and 24 h after oral administration. Whole blood was centrifuged at 6800 g for 6 min at 4° C. and the top plasma was stored in a −80° C. freezer for later analysis.
The DMSO stock solution of the test compound was diluted into a series of working solutions with a methanol or an acetonitrile solution, and added to a blank plasma matrix, and standard curves were generated and quality control samples were prepared. An appropriate volume of the plasma sample was taken and a suitable multiple of methanol or acetonitrile containing an internal standard was added for protein precipitation based on the response. After centrifugation of all samples at 18000 g for 10 min at 4° C., an appropriate amount of supernatant was taken for LC-MS/MS injection analysis.
Drug concentration-time curves in plasma were plotted according to test concentrations, and pharmacokinetic parameters were calculated using noncompartmental analysis by WinNonlin software, including: half-life (T½), area under the concentration-time curve from time zero to time t (AUCO-t), clearance (CL), volume of distribution at steady state (Vss) and bioavailability (F), with some of the test results shown in Table 4.

[6] = target: hERG channel (Homo sapiens (Human), UniProt Q12809); experiment: hERG manual patch clamp test; type: cell-based
Sequence of hERG channel (Q12809 whole entry, the tested form may be a part): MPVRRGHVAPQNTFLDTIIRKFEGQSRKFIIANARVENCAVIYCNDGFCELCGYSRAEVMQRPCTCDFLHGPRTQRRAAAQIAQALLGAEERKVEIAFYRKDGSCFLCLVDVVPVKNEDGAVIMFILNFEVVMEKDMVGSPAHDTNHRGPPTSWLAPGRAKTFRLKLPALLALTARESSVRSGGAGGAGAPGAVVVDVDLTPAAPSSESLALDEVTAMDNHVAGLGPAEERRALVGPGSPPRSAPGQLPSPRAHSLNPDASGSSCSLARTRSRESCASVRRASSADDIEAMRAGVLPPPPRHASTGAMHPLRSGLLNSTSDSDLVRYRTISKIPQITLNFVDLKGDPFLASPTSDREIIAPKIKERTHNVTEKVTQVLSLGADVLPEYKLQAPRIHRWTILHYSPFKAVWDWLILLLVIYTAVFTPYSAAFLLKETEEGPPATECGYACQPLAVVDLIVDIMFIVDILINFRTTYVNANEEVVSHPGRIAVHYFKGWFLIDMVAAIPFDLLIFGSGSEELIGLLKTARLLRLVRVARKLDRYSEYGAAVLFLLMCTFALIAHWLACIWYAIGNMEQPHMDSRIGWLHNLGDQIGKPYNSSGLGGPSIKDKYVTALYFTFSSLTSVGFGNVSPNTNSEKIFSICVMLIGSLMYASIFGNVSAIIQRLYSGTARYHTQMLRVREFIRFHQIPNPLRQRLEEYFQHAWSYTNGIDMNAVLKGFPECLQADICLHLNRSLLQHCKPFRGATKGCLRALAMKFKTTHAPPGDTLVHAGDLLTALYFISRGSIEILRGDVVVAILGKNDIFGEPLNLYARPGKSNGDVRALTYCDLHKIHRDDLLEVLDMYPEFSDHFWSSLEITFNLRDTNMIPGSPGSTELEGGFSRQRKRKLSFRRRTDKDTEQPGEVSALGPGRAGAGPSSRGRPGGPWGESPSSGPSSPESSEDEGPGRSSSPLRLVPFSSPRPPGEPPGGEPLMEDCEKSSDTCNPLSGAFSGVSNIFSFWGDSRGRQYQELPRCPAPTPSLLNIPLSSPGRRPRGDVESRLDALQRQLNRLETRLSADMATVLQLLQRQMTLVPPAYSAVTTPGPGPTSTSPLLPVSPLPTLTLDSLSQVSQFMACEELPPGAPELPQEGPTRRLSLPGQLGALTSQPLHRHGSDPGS
Experimental: The cells used in this test were the HEK293 cell line transfected with hERG cDNA and stably expressing the hERG channel (#60187, supplied by BPS, passages P3-P23 for experimental studies). The cells were cultured in a medium containing the following components: MEM medium containing 10% (v/v) inactivated fetal calf serum, 1 mM sodium pyruvate, 500 μg/ml geneticin, 0.1 mM non-essential amino acids, and 100 U/m1 penicillin/streptomycin. HEK293 hERG cells were grown in a culture dish containing the above-mentioned medium, cultured in a 37° C., 5% CO2 incubator, and passaged approximately three times per week, with the cell fusion rate between 40% and 80%. 24 to 48 hours prior to electrophysiological experiments, HEK293 hERG cells were transferred to 0.05 mg/ml PDL-pretreated slides, seeded at a density of 1×10^4 cells per well in a 48-well plate, and grown in the same medium and under the same culture conditions. The density of HEK293 hERG cells on each circular slide needs to reach the requirement that most cells are independent and individual. The extracellular fluid components used in the hERG assay were as follows (mM): 145 NaCl, 4 KCl, 2 CaCl2, 1 MgCl2, 10 glucose, and 10 HEPES (pH adjusted to 7.40 with NaOH). The intracellular fluid components were as follows (mM): 130 KCl, 2 MgCl2, 5 EGTA, 10 HEPES and 5 Na2ATP (pH adjusted to 7.25 with KOH). […] Prior to the experiment, the compound was first serially diluted with DMSO to prepare stock solutions at 10, 3, 1, 0.3, and 0.1 mM, which were then further diluted with extracellular fluid to achieve the final test concentrations (in μM). The final concentration of DMSO in compound solutions at various concentrations was between 0.1% and 0.3%. All compound solutions are routinely sonicated for 5 to 10 min and shaken sufficiently to ensure complete dissolution of the compound, and all test solutions are mixed well by rotation for at least 10 min.
Electrophysiological tests were performed using a manual patch clamp system (HEKA EPC-10 signal amplifier and digital conversion system, HEKA Electronics, Germany) for the recording of whole cell currents. The specific test method was described as follows: Circular slides with […] hERG cells growing on the surface were placed in an electrophysiological recording chamber under an inverted microscope. The recording chamber was continuously perfused with extracellular fluid (at approximately 1 mL/min). The conventional whole-cell patch-clamp technique was employed for current recordings throughout the experiment. If not specified, the experiments were carried out at normal room temperature (about 25° C.). The cells were clamped at −80 mV. The cell clamp voltage was depolarized to +30 mV to activate the hERG potassium channel, and then clamped to −50 mV after 5 seconds to eliminate inactivation and produce a tail current. The peak tail current value was used as a value for the magnitude of the hERG current. The potassium current of hERG recorded in the above steps was stabilized by continuous extracellular fluid perfusion in the recording chamber, and the drug to be tested was continuously perfused until the inhibitory effect of the drug on hERG currents had stabilized. The coincidence of the most recent three consecutive current recording traces was typically taken as the criteria for determining whether steady-state conditions were achieved.
Dose-response curves of the test compounds were plotted with % hERG inhibition rate as the y-axis and test compound concentration as the x-axis, to calculate the IC50 values.

Row | SMILES | IC50 ([1]; Homo sapiens, HCC1395, 144 h) | IC50 ([2]; Homo sapiens, OVCAR-3, 240 h) | IC50 ([3]; Homo sapiens, HCC1954, 144 h) | IC50 [4] | IC50 [1] | IC50 [2] | IC50 [3] | AUC ([5]; read-out: AUC) | Cmax ([5]; read-out: Cmax) | IC50 [6]
1 | O=C(Nc1ccc(F)c2c1cc1n2CCOC1)c1ccc(NS(=O)(=O)CCO)cc1N1CCC2(CC1)CC2 [Example 305, N-(6-fluoro-3,4-dihydro-1H-[1,4]oxazino[4,3-a]indol-9-yl)-4-((2-hydroxyethyl)sulfonamido)-2-(6-azaspiro[2.5]oct-6-yl)benzamide] | > 5000 nM | 50 to 500 nM | 10 to 500 nM | ≤ 50 nM | – | – | – | – | – | –
2 | COC1c2cc3c(NC(=O)c4ccc(NS(=O)(=O)CCO)cc4N4CCC5(CC4)CC5)cccc3n2CCC1(F)F (centres unmarked) [Example 340, N-(8,8-difluoro-9-methoxy-6,7,8,9-tetrahydropyridino[1,2-a]indol-1-yl)-4-((2-hydroxyethyl)sulfonamido)-2-(6-azaspiro[2.5]oct-6-yl)benzamide] | > 5000 nM | ≤ 50 nM | 10 to 500 nM | 50 to 500 nM | – | – | – | – | – | –
3 | COc1ccc(NC(=O)c2ccc(NS(=O)(=O)CCO)cc2N2CCC3(CC2)CC3)c2cc3n(c12)CCC(F)(F)C3 [Example 478, N-(8,8-difluoro-4-methoxy-6,7,8,9-tetrahydropyridino[1,2-a]indol-1-yl)-4-(2-hydroxyethylsulfonamido)-2-(6-azaspiro[2.5]octan-6-yl)benzamide] | – | ≤ 50 nM | – | – | – | – | – | 48500 ng·h/mL | 6020 ng/mL | 8000 nM

Continued, in another order:

Row | IC50 ([1]; Homo sapiens, HCC1395, 144 h) | IC50 ([2]; Homo sapiens, OVCAR-3, 240 h) | IC50 ([3]; Homo sapiens, HCC1954, 144 h) | IC50 [4] | IC50 [1] | IC50 [2] | IC50 [3] | SMILES | AUC ([5]; read-out: AUC) | Cmax ([5]; read-out: Cmax) | IC50 [6]
4 | – | – | – | ≤ 50 nM | > 5000 nM | ≤ 50 nM | 10 to 500 nM | CC1OCCn2c1cc1c(NC(=O)c3ccc(NS(=O)(=O)CCO)cc3N3CCC4(CC3)CC4)cccc12 (centres unmarked) [Example 311, 4-((2-hydroxyethyl)sulfonamido)-N-(1-methyl-3,4-dihydro-1H-[1,4]oxazinyl[4,3-a]indol-9-yl)-2-(6-azaspiro[2.5]oct-6-yl)benzamide] | – | – | –
5 | > 5000 nM | ≤ 50 nM | 10 to 500 nM | 50 to 500 nM | – | – | – | CC1OCCn2c1cc1c(NC(=O)c3ccc(NS(=O)(=O)CCO)cc3N3CCC(=C(F)F)CC3)cccc12 (centres unmarked) [Example 320, 2-(4-(difluoromethylene)piperidin-1-yl)-4-((2-hydroxyethyl)sulfonamido)-N-(1-methyl-3,4-dihydro-1H-[1,4]oxazino[4,3-a]indol-9-yl)benzamide] | – | – | –
